The assay deals with Pseudoxanthomonas taiwanensis biofilm. Description: Biofilm test in 96-microwell plates with peg lids, Crystal Violet quantification. Type of assay: cell-based. Conditions: for Impact (biofilm reduction percentage vs no added chemicals): 45° C., 150 rpm. The source says:
Authentic cooling water was obtained from a cooling water system in Germany. Proteobacteria are commonly found from cooling waters (Water Research 159 (2019): 464-479). In the biofilm-experiments the test water was spiked with Pseudoxanthomonas taiwanensis, a biofilm-forming species belonging to the phylum Proteobacter. Biofilm tests were done in simulated cooling water, SCW (prepared according to Marziya Rizvi et al., Nature Scientific Reports | (2021) 11:8353) using 96-microwell plate wells with peg lids (Thermo Fischer Scientific Inc., USA). Plates were incubated at 45° C. with a rotary shaking (150 rpm) providing high flow in each well. Wells of 96-microwell plates with peg-lids were filled with 10% authentic cooling water, 89% SCW and 1% of pure culture of Pseudoxanthomonas taiwanensis. Biofilm was grown at 45° C. with a rotary shaking (150 rpm) for 24 hours without addition of any chemical compound to be tested. After 24 hours from starting the test, the wells were emptied and a fresh solution comprising 10% authentic cooling water, 89% SCW and 1% of pure culture of Pseudoxanthomonas taiwanensis with different amounts of chemical compounds to be tested were added and the original peg-lid was placed back in place. After an additional 24 hours the wells were emptied and the biofilm amount on the pegs was quantified. The amount of biofilm formed on the peg surfaces was quantified with a staining solution by adding 200 μl of 1% Crystal Violet (Merck Millipore KGaA, Germany) in methanol to each well in a clean 96-well plate and placing the biofilm-containing peg-lid on it. After 3 minutes the wells were emptied and the wells and pegs were rinsed 3 times with tap water. Finally the peg-lid was placed in a clean 96-well plate, the attached Crystal Violet was dissolved into ethanol and the absorbance at 595 nm was measured. All parts per million (ppm) amounts given in Example 1 are as active ingredients. The Impact values are calculated as biofilm reduction percentages based on a comparison with no added chemicals. A positive value indicates a reduction in amount of biofilm whereas a negative value indicates an increase in the amount of biofilm. […] Biofilm was stained and quantified by absorbance measurement. Dosages are given as active ingredients.

Each structure is given as a SMILES string.

For the molecule `Cc1ccc(S(=O)(=O)C=CC#N)cc1` [Compound A, 3-[(4-methylphenyl)sulphonyl]-2-propenenitrile], the “Impact (biofilm reduction percentage vs no added chemicals)” value runs as follows: (Compound A 0.15 ppm alone, 24 h, negative = increase) −19%; (Compound A 0.30 ppm alone, 24 h) 2%; (Compound A 0.45 ppm alone, 24 h) 8%.

As to `OCl` [Sodium hypochlorite], the “Impact (biofilm reduction percentage vs no added chemicals)” value reads like this: (Sodium hypochlorite 2 ppm alone, authentic cooling water+SCW+P. taiwanensis, 24 h on pre-grown biofilm, negative = increase) −30%; (Sodium hypochlorite 4 ppm alone, 24 h, negative = increase) −27%; (Sodium hypochlorite 8 ppm alone, 24 h, negative = increase) −25%; (Sodium hypochlorite 12 ppm alone, 24 h, negative = increase) −10%; (Sodium hypochlorite 16 ppm alone, 24 h) 6%. The “Dosage required to reach noticeable biofilm reduction efficacy” value (Sodium hypochlorite on its own, as active compound) was found to be 16 ppm.

(Values after patent US20250059074A1, “ANTIMICROBIAL SYSTEM AND METHOD” (KEMIRA OYJ, priority 2021, published 2025).)
